Results taken from the supplement of paper PMC10307832.

How the values were obtained:
Test in all cases: relative viability (nuclei count vs DMSO), 5 days (fraction); higher = more cells survive
Elesclomol + Bortezomib = compound: CN(NC(=O)CC(=O)NN(C)C(=S)c1ccccc1)C(=S)c1ccccc1 [Elesclomol] + CC(C)C[C@H](NC(=O)[C@H](Cc1ccccc1)NC(=O)c1cnccn1)B(O)O [Bortezomib] (partner 0.002 µM)
In short: (§1)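 Relative viability is defined as nuclei in treated wells over nuclei in vehicle wells. Duplicate plates were run and medians reported. Lung cancer cell lines in 1536-well plates were dosed by pin tool one day after seeding, with one drug or with a fixed anchor-drug dose plus five library-drug doses (not always all listed) in √10 steps, and nuclei were counted after 5 days.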

Elesclomol + OSI-027 = compound: CN(NC(=O)CC(=O)NN(C)C(=S)c1ccccc1)C(=S)c1ccccc1 [Elesclomol] + COc1cccc2cc(-c3nc([C@H]4CC[C@H](C(=O)O)CC4)n4ncnc(N)c34)[nH]c12 [OSI-027] (partner 0.5 µM)
In short: as §1

Elesclomol + Pemetrexed = compound: CN(NC(=O)CC(=O)NN(C)C(=S)c1ccccc1)C(=S)c1ccccc1 [Elesclomol] + Nc1nc2[nH]cc(CCc3ccc(C(=O)N[C@@H](CCC(=O)O)C(=O)O)cc3)c2c(=O)[nH]1 [Pemetrexed] (partner 0.2 µM)
In short: as §1

Elesclomol + Crizotinib = compound: CN(NC(=O)CC(=O)NN(C)C(=S)c1ccccc1)C(=S)c1ccccc1 [Elesclomol] + C[C@@H](Oc1cc(-c2cnn(C3CCNCC3)c2)cnc1N)c1c(Cl)ccc(F)c1Cl [Crizotinib] (partner 1 µM)
In short: as §1

Elesclomol + Decitabine = compound: CN(NC(=O)CC(=O)NN(C)C(=S)c1ccccc1)C(=S)c1ccccc1 [Elesclomol] + Nc1ncn([C@H]2C[C@H](O)[C@@H](CO)O2)c(=O)n1 [Decitabine] (partner 2 µM)
In short: as §1

Cell Line	relative viability (Elesclomol + Bortezomib; first compound 0.003162 µM)	relative viability (Elesclomol + Bortezomib; first compound 0.01 µM)	relative viability (Elesclomol + Bortezomib; first compound 0.03162 µM)	relative viability (Elesclomol + Bortezomib; first compound 0.1 µM)	relative viability (Elesclomol + OSI-027; first compound 0.003162 µM)	relative viability (Elesclomol + OSI-027; first compound 0.01 µM)	relative viability (Elesclomol + OSI-027; first compound 0.03162 µM)	relative viability (Elesclomol + OSI-027; first compound 0.1 µM)	relative viability (Elesclomol + Pemetrexed; first compound 0.003162 µM)	relative viability (Elesclomol + Pemetrexed; first compound 0.01 µM)	relative viability (Elesclomol + Pemetrexed; first compound 0.03162 µM)	relative viability (Elesclomol + Pemetrexed; first compound 0.1 µM)	relative viability (Elesclomol + Crizotinib; first compound 0.003162 µM)	relative viability (Elesclomol + Crizotinib; first compound 0.01 µM)	relative viability (Elesclomol + Crizotinib; first compound 0.03162 µM)	relative viability (Elesclomol + Crizotinib; first compound 0.1 µM)	relative viability (Elesclomol + Decitabine; first compound 0.003162 µM)	relative viability (Elesclomol + Decitabine; first compound 0.01 µM)	relative viability (Elesclomol + Decitabine; first compound 0.03162 µM)	relative viability (Elesclomol + Decitabine; first compound 0.1 µM)
LOU-NH91	0.537	0.525	0.423	0.463	0.786	0.701	0.595	0.714	0.401	0.404	0.487	0.375	0.735	0.706	0.616	0.57	0.868	0.775	0.756	0.72
LU99A	1.21	–	1.18	0.121	0.309	0.259	0.295	0.223	0.188	0.183	0.185	0.198	0.545	–	0.648	0.121	0.904	0.807	0.794	0.556
LXF-289	0.997	0.998	0.968	0.673	0.82	0.328	0.803	0.589	0.894	0.971	0.867	0.552	0.811	0.775	0.767	0.588	0.395	0.39	0.389	0.253
NCI-H23	1.07	–	0.603	0.119	0.66	0.298	0.601	0.312	0.787	0.568	0.503	0.12	0.56	–	0.49	0.116	0.338	0.338	0.213	0.147
NCI-H322M	1.17	–	1.25	1.15	0.565	0.328	0.268	0.116	0.515	0.368	0.293	0.0948	0.911	–	0.98	0.552	0.608	0.511	0.402	0.29
NCI-H441	0.55	0.454	0.25	0.0495	0.563	0.37	0.327	0.103	0.239	0.234	0.18	0.0576	0.836	0.461	0.286	0.113	0.22	0.209	0.216	0.127
NCI-H460	0.911	0.292	0.0099	0.0073	0.619	0.276	0.101	0.0137	0.0667	0.0599	0.0708	0.0235	0.624	0.0306	0.0112	0.0109	0.433	0.396	0.107	0.0381
NCI-H520	0.481	0.248	0.2	0.0916	0.23	0.293	0.224	0.14	0.724	0.779	0.335	0.109	0.69	0.713	0.233	0.0848	0.526	0.411	0.313	0.143
NCI-H596	1	1.04	0.95	0.156	0.8	0.694	0.757	0.206	0.523	0.452	0.489	0.211	0.92	0.948	0.95	0.184	1.03	0.903	0.664	0.241
NCI-H647	0.924	0.773	0.589	0.0718	0.603	0.368	0.161	0.203	0.172	0.158	0.139	0.0481	1.1	0.813	0.39	0.0391	0.355	0.293	0.259	0.0841
NCI-H650	1.02	0.309	0.199	0.198	0.555	0.382	0.229	0.254	0.884	0.728	0.449	0.191	0.666	0.264	0.254	0.256	0.343	0.281	0.211	0.16
NCI-H661	0.635	0.288	0.209	0.182	0.617	0.283	0.242	0.168	0.884	0.596	0.38	0.331	0.991	0.619	0.361	0.283	0.58	0.468	0.296	0.239
NCI-H838	0.825	0.581	0.621	0.609	0.331	0.407	0.378	0.286	0.254	0.217	0.252	0.195	0.833	0.745	0.691	0.414	0.469	0.433	0.403	0.249
NCI-H1355	1.15	1.08	0.828	0.24	0.448	0.266	0.27	0.186	1.02	0.992	0.721	0.206	1.02	1.02	0.701	0.203	0.352	0.336	0.268	0.2
NCI-H1437	0.388	0.32	0.268	0.264	0.71	0.568	0.406	0.363	0.317	0.249	0.224	0.243	0.769	0.457	0.504	0.329	0.602	0.493	0.438	0.337
NCI-H1650	0.229	0.206	0.165	0.16	0.221	0.201	0.151	0.132	0.304	0.294	0.333	0.095	0.325	0.221	0.255	0.122	0.306	0.219	0.16	0.0942
NCI-H1651	0.859	0.931	0.872	0.655	0.523	0.527	0.259	0.102	0.638	0.61	0.535	0.432	0.81	0.833	0.951	0.531	0.596	0.608	0.577	0.4
NCI-H1666	0.826	0.334	0.278	0.172	0.807	0.654	0.464	0.465	0.998	0.801	0.817	0.724	0.745	0.271	0.235	0.15	0.739	0.717	0.522	0.47
NCI-H1734	0.957	0.738	0.405	0.12	0.573	0.491	0.178	0.124	0.436	0.507	0.234	0.11	0.66	0.586	0.382	0.0924	0.483	0.445	0.188	0.101
NCI-H1755	1.06	0.831	0.951	0.304	0.756	0.457	0.66	0.419	0.383	0.359	0.426	0.348	0.849	0.827	0.692	0.222	0.704	0.808	0.689	0.598
NCI-H1792	0.894	0.85	0.968	0.986	0.724	0.547	0.67	0.61	0.79	–	0.793	0.277	0.939	0.945	1	1.01	0.53	–	0.523	0.443
NCI-H1915	0.857	–	1.01	0.526	0.616	–	0.587	0.357	0.499	0.456	0.481	0.286	0.888	–	0.895	0.759	0.254	0.265	0.277	0.205
NCI-H1975	0.351	0.316	0.193	0.109	0.863	0.455	0.392	0.0658	0.298	0.292	0.17	0.133	0.934	0.835	0.407	0.132	0.387	0.386	0.308	0.189
NCI-H1993	1.07	1.05	0.49	0.493	0.552	0.498	0.616	0.513	0.707	0.6	0.486	0.366	0.812	0.836	0.603	0.577	0.613	0.505	0.477	0.389
NCI-H2009	0.929	0.229	0.115	0.0727	0.448	0.131	0.126	0.0949	1.02	0.982	0.312	0.115	1.06	0.644	0.137	0.109	0.425	0.245	0.173	0.118
NCI-H2023	0.744	0.374	0.146	0.0637	0.351	0.128	0.0471	0.0389	0.172	0.128	0.0613	0.0421	0.44	0.248	0.0779	0.0736	0.219	0.181	0.0903	0.0614
NCI-H2085	0.938	0.662	0.577	0.349	0.919	0.727	0.476	0.268	0.911	0.902	0.64	0.168	0.881	0.495	0.339	0.226	0.561	0.449	0.355	0.297
